Values quoted from earlier work as cited in patent publication US20210321634A1, “Lactobacillus Acidipiscis, Fermented Soymilk, and Preparation Method and Use Thereof” (Hebei Agricultural University, priority 2020, published 2021).

Columns and labels:
[1] = compared with daidzein
[2] = compared with daidzein and genistein

Row | SMILES | cardiovascular protective activity [1] | DPPH free radical scavenging activity [2]
1 | O=C1c2ccc(O)cc2OCC1c1ccc(O)cc1 (stereo not drawn) [DHD, dihydrodaidzein] | significantly higher | significantly higher
2 | O=C1c2c(O)cc(O)cc2OCC1c1ccc(O)cc1 (stereo not drawn) [DHG, dihydrogenistein] |  | significantly higher
